For the series the following is noted: in vivo.

As for `CN(C)c1ccc(O)c2c1C[C@H]1C[C@H]3[C@H](N(C)C)C(O)=C(C(N)=O)C(=O)[C@@]3(O)C(O)=C1C2=O` [Minocycline], the systemic plasma level result is on record as “below detection limits”.

Take `CO[C@H]1/C=C/O[C@@]2(C)Oc3c(C)c(O)c4c(O)c(c(/C=N/N5CCN(C)CC5)c(O)c4c3C2=O)NC(=O)/C(C)=C\C=C\[C@H](C)[C@H](O)[C@@H](C)[C@@H](O)[C@@H](C)[C@H](OC(C)=O)[C@@H]1C` [Rifampin]: the systemic plasma level result is listed as “below detection limits”.
